Laboratory results as given in patent US20250275981A1, “HOMOHARRINGTONINE AND PACLITAXEL COMBINATION FOR THE TREATMENT OF BREAST CANCER” (priority 2022, published 2025).
Where two headings read alike, the source gives them in different places.

How the values were obtained:
[1] = test system: MCF10A cells
Experimental: Cells were authenticated by the supplier (http://www.ATCC.org) and cultured as recommended by ATCC for less than six months from the time of resuscitation. HCC1806, HCC1428 and T47D cells stably expressing triple hemagglutinin (HA)-tagged CREB3L1 (HA-CREB3L1) have been described and characterized previously.
Cells were allowed to attach and grow at 37° C. and 5% CO2. The following day the media was carefully removed from each well and replaced with drug-containing media in triplicate wells, again using the ASSIST PLUS. After 4 days of drug treatment cells were stained with Hoechst and ImageIT® Dead Green to quantify total and live cells as detailed below.
Images of each well of the 384-well plates were acquired using a Thermo Scientific® CellInsight® CX7 High Content Screening (HCS) Platform. Nine fields of view were captured using a 10×(0.4 NA) air objective lens. Images were analyzed using Thermo Scientific HCS Studio® 3 Cell Analysis Software using the Spot Detector bio-application (Cellomics®). Total cells were identified and counted by their Hoechst-stained nuclei at 386 nm (blue) channel 1 (Ch1) and dead cells were quantified from the ImageIT® Dead Green on the 485 nm wavelength (green) channel 2 (Ch2). […] The test well total live cell count was divided by the average of the corresponding solvent control total live cell count, giving the percentage cell viability (% viability). The mean±standard error of the mean (SEM) of the % viability of each set of triplicate wells was determined.
Drug titration experiments were carried out as described for the secondary drug screens, except a range of drug concentrations were tested. […] EC values were determined using PRISM software (GraphPad, v9.2.0) using non-linear curve fit. A student's t-test was used to determine statistically significant differences between the EC values for the two cell lines. Significance was defined as p<0.05.

[2] = test system: HCC38; assay: Cell viability drug titration (EC50), 4 days of drug treatment; format: cell-based; conditions: Homo sapiens
Source text: (§1) Significance was defined as p<0.05.

[3] = test system: T47D + HA-CREB3L1; assay: as above; format: cell-based; conditions: Homo sapiens, 96 h
Source text: as §1

[4] = test system: HCC1428 + HA-CREB3L1; assay: as above; format: cell-based; conditions: Homo sapiens
Source text: as §1

[5] = test system: HCC1395; assay: as above; format: cell-based; conditions: Homo sapiens
Source text: as §1

[6] = test system: MDA-MB-436; assay: as above; format: cell-based; conditions: Homo sapiens
Source text: as §1

[7] = test system: ZR-75-1; assay: as above; format: cell-based; conditions: Homo sapiens
Source text: as §1

[8] = test system: Hs578T; assay: as above; format: cell-based; conditions: Homo sapiens, Hs-578T, 96 h
Source text: as §1

[9] = test system: T47D; assay: as above; format: cell-based; conditions: Homo sapiens, 96 h
Source text: as §1

[10] = test system: HCC1806+HA-CREB3L1 cells; assay: as above; format: cell-based; conditions: Homo sapiens, 96 h, single agent
Source text: as §1

[11] = test system: MCF7; assay: as above; format: cell-based; conditions: Homo sapiens
Source text: as §1

[12] = test system: BT549; assay: as above; format: cell-based; conditions: Homo sapiens, BT-549, 96 h
Source text: as §1

[13] = test system: HCC1428; assay: as above; format: cell-based; conditions: for EC50: Homo sapiens; for drug sensitivity of HCC1428 as compared to the corresponding CREB3L1-expressing cells: HCC1428 vs HCC1428 + HA-CREB3L1
Source text: as §1

[14] = test system: HCC1806 cells; assay: cells; format: cell-based
Source text: as §1

[15] = test system: MDA-MB-157; assay: Cell viability drug titration (EC50), 4 days of drug treatment; format: cell-based; conditions: Homo sapiens, MDA-MB-157, 96 h
Source text: as §1

[16] = test system: MDA-MB-231 TNBC xenografts; conditions: cited from earlier work
[17] = test system: anti-apoptotic proteins, including MCL-1, BCL-2 and surviving; conditions: several TNBC cell lines; reference [21]; cited from earlier work
[18] = test system: TNBC; conditions: combined with docetaxel, reference [23]; cited from earlier work
[19] = 96 h, HCC38 parental (TNBC), single agent, 4 days, read-out: EC50
[20] = T47D + HA-CREB3L1, single agent, 4 days, read-out: EC50
[21] = 96 h, HCC1428 + HA-CREB3L1, single agent, 4 days, read-out: EC50
[22] = 96 h, HCC1395 parental (TNBC), single agent, 4 days, read-out: EC50
[23] = 96 h, MDA-MB-436 parental (TNBC), single agent, 4 days, read-out: EC50
[24] = 96 h, ZR-75-1 parental (Luminal A, ER+), single agent, 4 days, read-out: EC50
[25] = Hs578T parental (TNBC), single agent, 4 days, read-out: EC50
[26] = T47D parental (Luminal A, ER+), single agent, 4 days, read-out: EC50
[27] = 96 h, MCF7 parental (Luminal A, ER+), single agent, 4 days, read-out: EC50
[28] = BT549 parental (TNBC), single agent, 4 days, read-out: EC50
[29] = 96 h, HCC1428 parental (Luminal A, ER+), single agent, 4 days, read-out: EC50
[30] = Homo sapiens, HCC1806, 96 h, HCC1806 parental (CREB3L1-deficient TNBC), single agent, 4 days of drug treatment, read-out: EC50

EC50 [10]	Structure (SMILES)	cytotoxicity towards non-tumorigenic MCF10A cells as compared to HCC1806 cells [1]	EC50 [2, 19]	EC50 [3, 20]	EC50 [4, 21]	EC50 [5, 22]	EC50 [6, 23]	EC50 [7, 24]	EC50 [8, 25]	EC50 [9, 26]	EC50 [11, 27]	EC50 [12, 28]	EC50 [13, 29]	EC50 [14, 30]	cytotoxicity towards CREB3L1-deficient HCC1806 as compared to HCC1806+HA-CREB3L1 cells ([14]; drug titration, 4 days, FIG. 2)	drug sensitivity of HCC1428 as compared to the corresponding CREB3L1-expressing cells [13]	other results
1300 ± 490 nM	CC(=O)c1c(C)c2cnc(Nc3ccc(N4CCNCC4)cn3)nc2n(C2CCCC2)c1=O [Palbociclib Isethionate, palbociclib isethionate]	very sensitive	210 ± 70 nM	7200 ± 9200 nM	160 ± 250 nM	4000 ± 2000 nM	17000 ± 14000 nM	710 ± 350 nM	3200 ± 1400 nM	13000 ± 9800 nM	4400 ± 3500 nM	12600 ± 4800 nM	21 ± 15 nM	500 nM	showed a preference for killing the more metastatic CREB3L1-deficient HCC1806 TNBC cells		
	CC(=O)O[C@H]1C[C@H](O[C@H]2[C@@H](O)C[C@H](O[C@H]3[C@@H](O)C[C@H](O[C@H]4CC[C@@]5(C)[C@H](CC[C@@H]6[C@@H]5C[C@@H](O)[C@]5(C)[C@@H](C7=CC(=O)OC7)CC[C@]65O)C4)O[C@@H]3C)O[C@@H]2C)O[C@H](C)[C@H]1O[C@@H]1O[C@H](CO)[C@@H](O)[C@H](O)[C@H]1O [Lanatoside C, lanatoside C]	very sensitive														the opposite was true	EC50 ([2]; HCC38, 96 h): 300 ± 100 nM; EC50 ([3]; T47D): 89 ± 34 nM; EC50 ([4]; HCC1428, 96 h): 32 ± 8 nM; EC50 ([5]; HCC1395, 96 h): 510 ± 300 nM; EC50 [15]: 550 ± 240 nM; EC50 ([6]; MDA-MB-436, 96 h): 460 ± 250 nM; EC50 ([7]; ZR-75-1, 96 h): 650 ± 510 nM; EC50 [8]: 1000 ± 800 nM; EC50 ([9]; T47D): 500 ± 50 nM; EC50 ([11]; MCF7, 96 h): 450 ± 490 nM; EC50 [12]: 42 ± 12 nM; EC50 ([13]; HCC1428, 96 h): 35 ± 8 nM; cytotoxicity towards CREB3L1-deficient HCC1806 as compared to HCC1806+HA-CREB3L1 cells [14]: showed a preference for killing the more metastatic CREB3L1-deficient HCC1806 TNBC cells; EC50 ([14]; Homo sapiens, HCC1806, 96 h): 143 nM
1.2 ± 0.4 nM	CC(=O)O[C@H]1C(=O)[C@@]2(C)[C@H]([C@H](OC(=O)c3ccccc3)[C@]3(O)C[C@H](OC(=O)[C@H](O)[C@@H](NC(=O)c4ccccc4)c4ccccc4)C(C)=C1C3(C)C)[C@]1(OC(C)=O)CO[C@@H]1C[C@@H]2O [Paclitaxel, (2α,4α,5β,7β,10β,13α)-4, 10-Bis(acetyloxy)-13-{[(2R,3S)-3-(benzoylamino)-2-hydroxy-3-phenylpropanoyl]oxy}-1,7-dihydroxy-9-oxo-5,20-epoxytax-11-en-2-yl benzoate]		2.4 nM			12 nM			7.4 nM					1.2 ± 0.5 nM			
	Cc1c(-c2c(-c3ccc(F)o3)sc3ncnc(O[C@H](Cc4ccccc4OCc4ccnn4CC(F)(F)F)C(=O)O)c23)ccc(OCCN2CCN(C)CC2)c1Cl [S63845]																synergistic activity with docetaxel [18]: synergistic activity
17 ± 6 nM	COc1cccc2c1C(=O)c1c(O)c3c(c(O)c1C2=O)C[C@@](O)(C(=O)CO)C[C@@H]3O[C@H]1C[C@H](N)[C@H](O)[C@H](C)O1 [Doxorubicin, doxorubicin]													13 ± 4 nM			EC50 ([14]; HCC1806 parental (CREB3L1-deficient TNBC), single agent, 4 days of drug treatment, read-out: EC50): 13.2 nM

Structure (SMILES)	EC50 [10]	cytotoxicity towards non-tumorigenic MCF10A cells as compared to HCC1806 cells [1]	EC50 [2, 19]	EC50 [3, 20]	EC50 [4, 21]	EC50 [5, 22]	EC50 [6, 23]	EC50 [7, 24]	EC50 [8, 25]	EC50 [9, 26]	EC50 [11, 27]	EC50 [12, 28]	EC50 [13, 29]	EC50 [14, 30]	cytotoxicity towards CREB3L1-deficient HCC1806 as compared to HCC1806+HA-CREB3L1 cells ([14]; drug titration, 4 days, FIG. 2)	drug sensitivity of HCC1428 as compared to the corresponding CREB3L1-expressing cells [13]	other results
COC(=O)C[C@](O)(CCCC(C)(C)O)C(=O)O[C@@H]1C(OC)=C[C@]23CCCN2CCc2cc4c(cc2[C@H]13)OCO4 [Homoharringtonine, 1-((1S,3aR,14bS)-2-Methoxy-1,5,6,8,9,14b-hexahydro-4H-cyclopenta(a)(1,3)dioxolo(4,5-h)pyrrolo (2,1-b)(3)benzazepin-1-yl) 4-methyl (2R)-2-hydroxy-2-(4-hydroxy-4-methylpentyl)butanedioate]	42 ± 7 nM	similar	58 ± 10 nM	88 ± 55 nM	10 ± 3 nM	104 ± 31 nM	33 ± 36 nM	117 ± 35 nM	42 ± 24 nM	400 ± 180 nM	18 ± 9 nM	89 ± 10 nM	9 ± 3 nM	29 nM	showed a preference for killing the more metastatic CREB3L1-deficient HCC1806 TNBC cells	the opposite was true	tumor growth ([16]; MDA-MB-231 TNBC xenografts, mice, reference [21]): reduced tumor growth; general toxicity for the mice ([16]; mouse, in vivo): without general toxicity; EC50 ([15]; read-out: EC50): 7.5 ± 1.2 nM; expression of anti-apoptotic proteins, including MCL-1, BCL-2 and surviving [17]: rapidly reduce the expression
Nc1nc(Cl)nc2c1ncn2[C@H]1C[C@H](O)[C@@H](CO)O1 [Cladribine, cladribine]	182 ± 60 nM	Little or no cytotoxicity	65 ± 56 nM	1800 ± 1300 nM	2200 ± 1700 nM	10100 ± 1200 nM	660 ± 180 nM	750 ± 350 nM	5700 ± 1200 nM	9600 ± 1800 nM	3400 ± 2100 nM	178 ± 84 nM	740 ± 330 nM	92 nM	showed a preference for killing the more metastatic CREB3L1-deficient HCC1806 TNBC cells	increased drug sensitivity	EC50 ([15]; read-out: EC50): 5000 ± 4300 nM
